Data taken from patent US7572434B2, “Method for assessing the effect of a drug on long term memory formation” (Cold Spring Harbor Laboratory, priority 1994, dated 2009).

Assays:
[1] = target: T1, DNOS (Drosophila nitric oxide synthase) (Drosophila melanogaster, UniProt Q27571, DUP33-33/S105L/S1197R/S20A/S287C); assay: DNOS enzyme activity, conversion of 3H-L-arginine to 3H-L-citrulline in extracts of dNOS-transfected 293 cells; format: biochemical
T1 construct: contained dNOS cDNA (with an XbaI site engineered immediately upstream of the ATG codon) cloned into the XbaI and SmaI sites; made in house; host or cells: 293 human embryonic kidney cells, transient calcium-phosphate transfection; unpurified soluble protein extract
Source text: [In a parallel experiment, the specific activity of rat neuronal NOS expressed from the same vector in 293 cells was 3.0±0.02 pmol/mg/min, N=4]. DNOS activity was dependent on exogenous Ca^2+/calmodulin and on NADPH, two cofactors necessary for activity of constitutive mammalian NOSs (Iyengar, R., Proc. Natl. Acad. Sci. USA, 84: 6369-6373 (1987); Bredt, D. S., Proc. Natl. Acad. Sci. USA, 87: 682-685 (1990)). DNOS activity was reduced 90% by the Ca^2+ chelator EGTA (FIG. 17B, group C). Also, 500 μM N-(6-aminohexyl)-1-naphthalene-sulfonamide (W5), a calmodulin antagonist which inhibits activity of neuronal NOS (Bredt, D. S., Proc. Natl. Acad. Sci. USA, 87: 682-685 (1990)), diminished DNOS activity to 18% (0.0222±0.001 pmol/mg/min, N=2). In the absence of exogenous NADPH, DNOS (or nNOS) activity was reduced 20% (0.1061±0.011 pmol/mg/min, N=4 for DNOS; 2.7935±0.033 pmol/mg/min, N=2 for NNOS). DNOS activity also was blocked by inhibitors of mammalian NOSs (Rees, D. D., Br. J. Pharmacol., 101: 746-752 (1990)).
The expression construct for activity assays contained dNOS cDNA (with an XbaI site engineered immediately upstream of the ATG codon) cloned into the XbaI and SmaI sites of the pCGN expression vector (M. Tanaka and W. Herr, Cell, 60: 375 (1990)). 293 human kidney cells were transfected with 15 μg of the dNOS construct, or vector DNA, and precipitated with calcium phosphate as described in (M. J. Imperiale, L. T. Feldman and J. R. Nevins, Cell, 35: 127 (1983)). Cells were collected 2 days later and protein extracts were prepared as described in (J. Sambrook, E. F. Fritsch, T. Maniatis, Molecular Cloning: A Laboratory Manual (Cold Spring Harbor Laboratory, Cold Spring Harbor, N.Y., 1989)).
The enzymatic assay was done essentially as described previously (D. Bredt and S. Snyder, Proc. Natl. Acad. Sci. USA, 87: 682 (1990)). A […] containing 25 μl (50-100 μg) of soluble protein extract, 50 mM Hepes pH 7.4, […], 3 μM FMN, 10 μM tetrahydrobiopterin (ICN), 1 mM DTT, 0.8 mM CaCl2, 1 mM NADPH, 10 μg/ml calmodulin, 2 μl of [^3H]L-arginine (35.7 Ci/mmol, NEN) and 50 mM L-valine in was incubated for 60 minutes at 37° C. The reaction was stopped with 0.5 ml 20 mM Hepes pH 5.5, 2 mM EDTA, 2 mM EGTA, loaded on 0.5 ml Dowex AG 50WX-8 (Na^+ form) column and eluted with 3×0.5 ml of the stop buffer. Radioactivity present in the eluent was quantified in a scintillation counter.
Enzymatic activity was detected only in cells transfected with dNOS cDNA construct (groups B-D) and is presented as specific activity (pmol of citrulline/mg/min.). The DNOS activity also was measured in the presence of 1 mM EGTA without exogenous Ca^2+ or calmodulin (group C), or in the presence of […] (group D). N=4 reactions per group.

[2] = system: wild-type (Can-S) flies; assay: Pavlovian olfactory learning: memory retention after massed or spaced training in flies fed cycloheximide; format: in vivo, Drosophila; conditions: for one-day memory after massed training: vs control flies; for one-day memory retention after spaced training: vs glucose-fed flies
Protocol: For experiments on one day retention after massed or spaced training, flies were fed 35 mM CXM and (w/v) 5% glucose dissolved in 3% ethanol. Groups of 100 flies were placed in feeding tubes (Falcon 2017) containing one 1.0×2.5 cm Whatmann 3MM filter paper strips that was soaked with a total of 126 μl of solution.
The feeding period was limited to 12-14 hrs prior to training, or to the 24-hr retention interval after training. Flies which were fed prior to training were transferred directly to the training apparatus after feeding, subjected to massed or spaced training, then transferred to test tubes containing filter paper strips soaked with 5% glucose during the 24-hr interval. Flies which were fed after training were trained, then transferred immediately to test tubes containing filter paper strips soaked with 5% glucose solution which was laced with 35 mM CXM. Flies remained in the test tubes for the duration of the 24-hr retention interval.
Flies were trained with an automated version of the learning procedure of Tully, T. and W. G. Quinn, J. Comp. Physiol., 157: 263-277 (1985). In brief, flies were trapped in a training chamber, the inside of which was covered with an electrifiable copper grid. Groups of about 100 flies were exposed sequentially to two odors [either octanol (OCT) or methylcyclohexanol (MCH)], which were carried through the training chamber in a current of air, for 60 seconds with 45 seconds rest intervals after each odor presenation. During exposure to the first odor, flies also were subjected to twelve 1.5-second pulses of 60 V DC with a 5-second interpulse interval. After training, flies were transferred to food vials for a particular retention interval. Conditioned odor-avoidance responses then were tested by transferring flies to the choice point of a T-maze, where they were exposed simultaneously to OCT and MCH carried in the distal ends of the T-maze arms and out the choice point on converging currents of air. Flies were allowed to distribute themselves in the T-maze arms for two minutes, after which they were trapped in their respective arms, anesthetized and counted. The “percent correct” then was calculated as the number of flies avoiding the shock-paired odor (they were in the opposite T-maze arm) divided by the total number of flies in both arms. (The number of flies left at the choice point, which usually was less than 5%, were not included in this calculation). Finally, a performance index (PI) was calculated by averaging the percent corrects of two reciprocal groups of flies—one where OCT and shock were paired, the other where MCH and shock were paired—and then by normalizing the average so that a PI=0 represented a 50:50 distribution in the T-maze and a PI=100 represented 100% avoidance of the shock-paired odor. For these studies, three different training protocols were used: 1. One-cycle training consisted of the training session just described. 2. Massed training consisted of 10 of these training cycles delivered one right after the other. 3. Spaced training consisted of 10 training cycles with a 15-min rest interval between each. One-cycle training was used to assay learning, while massed and spaced was used to assay consolidated memories.
A. One-day memory in wild-type flies fed CXM before or immediately after massed or spaced training (FIG. 8): PIs from these four drug treatments (−CXM before, −CXM after, +CXM before and +CXM after) and two training procedures (massed and spaced) were subjected to a TWO-WAY ANOVA with DRUG (F(3,56)=8.93; P<0.001) and TRAINing (F(1,56)=18.10, P<0.001) as main effects and DRUG×TRAIN (F(3,56)=4.68, P=0.006) as the interaction term. The six planned comparisons were judged significant if P≦0.01.
Different groups of wild-type (Can-S) flies were fed 5% glucose solution alone (hatched bars) or laced with 35 mM CXM (striped bars) either for 12-14 hr overnight before massed or spaced training or for the 24-hr retention interval immediately after training. […]

[3] = system: PKA-responsive transcription (CRE-directed reporter) in F9 cells; assay: PKA-responsive transcription from the CRE-containing D(-71) CAT reporter in transiently transfected F9 cells; format: cell-based; conditions: cotransfection of dCREB2-a and PKA; CAT/βgal ratios standardized to PKA-transfected dishes
Protocol: Undifferentiated F9 cells were maintained and transfected using the calcium phosphate method as described in Darrow, A. L. et al., “Maintenance and Use of F9 Teratocarcinoma Cells”, In Meth. Enzymol., v. 190 (1990), except that chloroquine was added to […] immediately before transfection and precipitates were washed off ten hours after transfection, at which time the dishes received fresh chloroquine-free medium. Amounts of DNA in transfections were made equivalent by adding RSV-0 where required. Cells were harvested 30 hours after transfection. Extracts were made by three cycles of freeze/thawing, with brief vortexing between cycles. Particulate matter was cleared from extracts by ten minutes of centrifugation in the cold. β-galactosidase assays were performed as described in Miller, J. H., Experiments in Molecular Genetics, Cold Spring Harbor Laboratory, Cold Spring Harbor, N.Y., 1972. CAT assays were performed as described in Sheen, J. Y. and B. Seed, Gene, 67: 271-277 (1988) using aliquots of extract heat-treated at 65° C. for ten minutes and centrifuged for ten minutes to remove debris. Results reported are from three experiments run on different days with at least three dishes per condition within each experiment. Error bars represent standard error of the mean, with error propagation taken into account (Grossman, M. and H. W. Norton, J. Hered., 71: 295-297 (1980)).
F9 cells were transiently transfected with 10 μg of D(−71) CAT plasmid as a CRE-directed reporter. 5 μg of RSV-βgal reporter was included in each dish as a normalization control for transfection efficiency. Different groups received 8 μg of dCREB2-a expression vector and 4 μg of PKA expression vector, separately or in combination. Results are expressed as CAT/Pgal enzyme activity ratios, standardized to values obtained with PKA-transfected dishes. […]
Two different dCREB2 isoforms, dCREB2-a and dCREB2-b, have opposite roles in PKA-responsive transcription. […] CREB-dependent changes in gene expression were measured using a cotransfected construct that has a CRE-containing promoter fused to a reporter gene.

[4] = 35 mM CXM fed 12-14 hr before training
[5] = 35 mM CXM fed for the 24-hr retention interval after training
[6] = flies fed CXM immediately before or after training

T1 sequence (Q27571 other isoform, or with tags, fused parts or gaps S20A/DUP33-33/S105L/S287C/S1197R): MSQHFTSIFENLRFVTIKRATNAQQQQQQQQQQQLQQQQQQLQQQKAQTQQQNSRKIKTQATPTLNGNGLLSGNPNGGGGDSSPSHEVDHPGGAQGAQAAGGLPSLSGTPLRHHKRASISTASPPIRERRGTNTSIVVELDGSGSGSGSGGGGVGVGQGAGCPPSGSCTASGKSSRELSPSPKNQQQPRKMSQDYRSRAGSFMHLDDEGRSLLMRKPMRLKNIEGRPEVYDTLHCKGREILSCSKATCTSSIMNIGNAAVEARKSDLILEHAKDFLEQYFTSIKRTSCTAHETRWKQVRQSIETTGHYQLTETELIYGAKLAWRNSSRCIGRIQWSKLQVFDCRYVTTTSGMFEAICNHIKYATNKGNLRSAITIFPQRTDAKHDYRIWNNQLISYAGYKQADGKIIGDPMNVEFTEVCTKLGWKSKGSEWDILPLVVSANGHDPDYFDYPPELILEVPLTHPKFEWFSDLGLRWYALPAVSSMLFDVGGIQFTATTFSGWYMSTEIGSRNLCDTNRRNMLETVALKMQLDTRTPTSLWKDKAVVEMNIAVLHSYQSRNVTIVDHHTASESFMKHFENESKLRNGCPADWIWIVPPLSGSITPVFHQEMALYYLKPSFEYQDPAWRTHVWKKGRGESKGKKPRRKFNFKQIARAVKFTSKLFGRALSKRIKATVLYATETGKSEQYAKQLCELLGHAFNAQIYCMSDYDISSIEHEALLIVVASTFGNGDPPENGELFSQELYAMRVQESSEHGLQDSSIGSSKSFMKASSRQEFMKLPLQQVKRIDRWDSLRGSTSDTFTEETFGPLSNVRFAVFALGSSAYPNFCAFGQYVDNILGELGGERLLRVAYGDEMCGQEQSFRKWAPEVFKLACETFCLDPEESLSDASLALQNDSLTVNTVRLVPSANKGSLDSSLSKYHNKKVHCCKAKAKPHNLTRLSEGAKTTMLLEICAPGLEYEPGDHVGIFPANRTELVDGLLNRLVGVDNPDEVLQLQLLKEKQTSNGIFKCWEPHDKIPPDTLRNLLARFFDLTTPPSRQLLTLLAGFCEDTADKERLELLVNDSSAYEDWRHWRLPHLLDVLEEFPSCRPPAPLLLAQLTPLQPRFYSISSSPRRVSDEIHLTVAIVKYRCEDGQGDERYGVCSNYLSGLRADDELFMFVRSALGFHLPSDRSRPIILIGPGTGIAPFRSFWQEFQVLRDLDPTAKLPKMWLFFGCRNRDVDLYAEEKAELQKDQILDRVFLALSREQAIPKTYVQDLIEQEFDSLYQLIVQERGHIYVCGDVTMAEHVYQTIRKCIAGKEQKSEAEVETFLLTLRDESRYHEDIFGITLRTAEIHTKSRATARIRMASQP

`CC(=O)O.CNC(=N)NCCC[C@H](N)C(=O)O` [N^G-monomethyl-L-arginine acetate] was tested, and the “block of DNOS activity” value ([1]; 100 μM N^G-monomethyl-L-arginine acetate) was “complete block” and the DNOS specific activity ([1]; 100 μM N^G-monomethyl-L-arginine acetate, N=2) was 0.0001 ± 0.0002 pmol/mg/min.

With `C[C@@H]1C[C@@H]([C@H](O)CC2CC(=O)NC(=O)C2)C(=O)[C@@H](C)C1` [CXM, cycloheximide] the “one-day memory after massed training” value [2, 4] was “no difference was detected”, the “one-day memory retention after spaced training” value [2, 4] was “significantly lower than normal” and the “one-day memory after massed training” value [2, 5] was “no difference was detected”. The “one-day memory retention after spaced training” value [2, 5] was “significantly lower than normal”, the “anesthesia-resistant memory (ARM)” value [2, 6] was “not affected” and the “long-term memory (LTM)” value [2, 6] was “completely blocked”.

With `O=C(O)CN(CCOCCOCCN(CC(=O)O)CC(=O)O)CC(=O)O` [EGTA] the DNOS activity reduced ([1]; 1 mM EGTA without exogenous Ca2+ or calmodulin (FIG. 17B, group C)) was 90%.

With `COC(=O)[C@@H](N)CCCNC(=N)N[N+](=O)[O-]` [L-NAME, N^G-nitro-L-arginine methyl ester] the DNOS activity reduced ([1]; 100 mM L-NAME with exogenous Ca2+/calmodulin (FIG. 17B, group D)) was 84%.

`NCCCCCCNS(=O)(=O)c1cccc2ccccc12` [W5, N-(6-aminohexyl)-1-naphthalene-sulfonamide] was tested, and the DNOS specific activity ([1]; 500 μM W5, N=2) was 0.0222 ± 0.001 pmol/mg/min and the remaining activity at 500 µM ([1]; 500 μM W5, read-out: DNOS activity diminished to (remaining activity)) was 18%.

B1: dCREB2-a: Drosophila dCREB2 isoform, PKA-responsive transcriptional activator (SEQ ID NO.: 2), expressed from RSV-dCREB2-a (protein, listed as Drosophila sp.)
chain: MDNSIVEENGNSSAASGSNDVVDVVAQQAAAAVGGGGGGGGGGGGGGNPQQQQQNPQSTTAGGPTGATNNAQGGGVSSVLTTTANCNIQYPIQTLAQHGLQVSIWGPGAWCQLSSVRCYGSQPEVATKDVQSVIQANPSGVIQTAAGTQQQQQALAAATAMQKVVYVAKPPNSTVIHTTPGNAVQVRNKIPPTFPCKIKPEPNTQHPEDSDESLSDDDSQHHRSELTRRPSYNKIFTEISGPDMSGASLPMSDGVLNSQLVGTGAGGNAANSSLMQLDPTYYLSNRMSYNTNNSGIAEDQTRKREIRLQKNREAARECRRKKKEYIKCLENRVAVLENQNKALIEELKSLKELYCQTKND
In the case of B1, the “activation of CRE reporter relative to PKA alone” value [3] is reported as 5.4 fold.
